Assay results from ChEMBL document CHEMBL5634199, “Novel Exatecan-Derived Topoisomerase-1 Inhibitors for Treating Cancer” (ACS Med Chem Lett, 2024).

System: JeKo-1
Test: Antiproliferative activity against human JeKo-1 cells assessed as reduction in cell viability by Cell-Titer Glo luminescent assay
Format: functional, cell-based

Structure (SMILES)	EC50
CC[C@@]1(O)C(=O)OCc2c1cc1n(c2=O)Cc2c-1nc1cc(F)c(C)c3c1c2[C@@H](NC(=O)C(F)CO)CC3 (stereo partly specified)	1.5 nM
CC[C@@]1(O)C(=O)OCc2c1cc1n(c2=O)Cc2c-1nc1cc(F)c(C)c3c1c2[C@@H](NC(=O)[C@@H](O)CO)CC3	1.4 nM
CC[C@@]1(O)C(=O)OCc2c1cc1n(c2=O)Cc2c-1nc1cc(F)c(C)c3c1c2[C@@H](NC(=O)C(F)(F)C(C)O)CC3 (stereo partly specified)	1.6 nM
CC[C@@]1(O)C(=O)OCc2c1cc1n(c2=O)Cc2c-1nc1cc(F)c(C)c3c1c2[C@@H](NC(=O)[C@H](O)CCO)CC3	1.4 nM
CC[C@@]1(O)C(=O)OCc2c1cc1n(c2=O)Cc2c-1nc1cc(F)c(C)c3c1c2[C@@H](NC(=O)C(C)(N)C(F)(F)F)CC3 (stereo partly specified)	1.6 nM
CC[C@@]1(O)C(=O)OCc2c1cc1n(c2=O)Cc2c-1nc1cc(F)c(C)c3c1c2[C@@H](NC(=O)C(C)(O)CO)CC3 (stereo partly specified)	1.2 nM
